In patent US9149038B2, “4-amino-6-(heterocyclic)picolinates and 6-amino-2-(heterocyclic)pyrimidine-4-carboxylates and their use as herbicides” (Dow AgroSciences LLC, priority 2013, dated 2015):
Like-named read-outs stand apart in the source and are kept apart here.

How the values were obtained:
[1] = test system: Key Broadleaf Weed and Crop Species; assay: Post-Emergent Test II: postemergent herbicidal activity, visual rating after 14 d (Table 7); format: in vivo; conditions: post-emergence, 336 h; for pest or weed control at 35 g/ha: 35 g ai/ha; for pest or weed control at 70 g/ha: 70 g ai/ha; for pest or weed control at 140 g/ha: 140 g ai/ha
Outline: (§1)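 Track-sprayed young seedlings (first/second true leaf) at 187 L/ha across a 2-fold rate series from the high rate down to 1/16×. Kept in greenhouse at 23-29° C day, subirrigated. Injury rated by eye after 14 d, 0 = no injury, 100 = complete kill.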

[2] = test system: Key Grass and Sedge Weeds as well as Grass Crops; assay: Post-Emergent Test II: postemergent herbicidal activity, visual rating after 14 d (Table 8); format: in vivo; conditions: post-emergence, 336 h; for pest or weed control at 35 g/ha: 35 g ai/ha; for pest or weed control at 70 g/ha: 70 g ai/ha; for pest or weed control at 140 g/ha: 140 g ai/ha
Outline: as §1

[3] = lambsquarters (Chenopodium album), read-out: Visual Growth Reduction (%) 14 Days After Application CHEAL
[4] = oilseed rape, canola (Brassica napus), read-out: Visual Growth Reduction (%) 14 Days After Application BRSNN
[5] = redroot pigweed (Amaranthus retroflexus), read-out: Visual Growth Reduction (%) 14 Days After Application AMARE
[6] = sunflower (Helianthus annuus), read-out: Visual Growth Reduction (%) 14 Days After Application HELAN
[7] = velvetleaf (Abutilon theophrasti), read-out: Visual Growth Reduction (%) 14 Days After Application ABUTH
[8] = wild poinsettia (Euphorbia heterophylla), read-out: Visual Growth Reduction (%) 14 Days After Application EPHHL
[9] = barnyardgrass (Echinochloa crus-galli), read-out: Visual Growth Reduction (%) 14 Days After Application ECHCG
[10] = giant foxtail (Setaria faberi), read-out: Visual Growth Reduction (%) 14 Days After Application SETFA
[11] = maize, corn (Zea mays), read-out: Visual Growth Reduction (%) 14 Days After Application ZEAMX
[12] = rice (Oryza sativa), read-out: Visual Growth Reduction (%) 14 Days After Application ORYSA
[13] = wheat, spring (Triticum aestivum), read-out: Visual Growth Reduction (%) 14 Days After Application TRZAS
[14] = yellow nutsedge (Cyperus esculentus), read-out: Visual Growth Reduction (%) 14 Days After Application CYPES

COC(=O)c1nc(-c2ccc3c(c2)OC(F)(F)O3)c(Cl)c(N)c1Cl [Compound 1]
45 to 59%: pest or weed control at 35 g/ha [2, 9] | pest or weed control at 70 g/ha [2, 10] | pest or weed control at 140 g/ha [2, 10]
85 to 94%: pest or weed control at 35 g/ha [1, 6] | pest or weed control at 70 g/ha [1, 6] | pest or weed control at 140 g/ha [1, 6]
0 to 29%: pest or weed control at 35 g/ha [1, 3] | pest or weed control at 70 g/ha [1, 3] | pest or weed control at 140 g/ha [1, 3] | pest or weed control at 35 g/ha [1, 4] | pest or weed control at 70 g/ha [1, 4] | pest or weed control at 140 g/ha [1, 4] | pest or weed control at 35 g/ha [1, 5] | pest or weed control at 70 g/ha [1, 5] | pest or weed control at 140 g/ha [1, 5] | pest or weed control at 35 g/ha [1, 7] | pest or weed control at 70 g/ha [1, 7] | pest or weed control at 140 g/ha [1, 7] | pest or weed control at 35 g/ha [1, 8] | pest or weed control at 70 g/ha [1, 8] | pest or weed control at 140 g/ha [1, 8] | pest or weed control at 35 g/ha [2, 10] | pest or weed control at 35 g/ha [2, 12] | pest or weed control at 70 g/ha [2, 12] | pest or weed control at 140 g/ha [2, 12] | pest or weed control at 35 g/ha [2, 13] | pest or weed control at 70 g/ha [2, 13] | pest or weed control at 140 g/ha [2, 13] | pest or weed control at 35 g/ha [2, 14] | pest or weed control at 70 g/ha [2, 14] | pest or weed control at 140 g/ha [2, 14]
60 to 74%: pest or weed control at 70 g/ha [2, 9] | pest or weed control at 140 g/ha [2, 9] | pest or weed control at 35 g/ha [2, 11] | pest or weed control at 70 g/ha [2, 11] | pest or weed control at 140 g/ha [2, 11]

COC(=O)c1nc(-c2cc3c(cc2F)OCO3)c(F)c(N)c1OC [Compound 26]
60 to 74%: pest or weed control at 70 g/ha [1, 4] | pest or weed control at 70 g/ha [2, 9] | pest or weed control at 140 g/ha [2, 11]
95 to 100%: pest or weed control at 70 g/ha [1, 6] | pest or weed control at 140 g/ha [1, 6] | pest or weed control at 35 g/ha [1, 8] | pest or weed control at 70 g/ha [1, 8] | pest or weed control at 140 g/ha [1, 8]
75 to 84%: pest or weed control at 140 g/ha [1, 4] | pest or weed control at 140 g/ha [2, 9]
0 to 29%: pest or weed control at 35 g/ha [1, 3] | pest or weed control at 70 g/ha [1, 3] | pest or weed control at 140 g/ha [1, 3] | pest or weed control at 35 g/ha [1, 5] | pest or weed control at 70 g/ha [1, 5] | pest or weed control at 35 g/ha [1, 7] | pest or weed control at 70 g/ha [1, 7] | pest or weed control at 140 g/ha [1, 7] | pest or weed control at 35 g/ha [2, 10] | pest or weed control at 70 g/ha [2, 10] | pest or weed control at 140 g/ha [2, 10] | pest or weed control at 35 g/ha [2, 12] | pest or weed control at 70 g/ha [2, 12] | pest or weed control at 140 g/ha [2, 12] | pest or weed control at 35 g/ha [2, 13] | pest or weed control at 70 g/ha [2, 13] | pest or weed control at 140 g/ha [2, 13] | pest or weed control at 35 g/ha [2, 14] | pest or weed control at 70 g/ha [2, 14] | pest or weed control at 140 g/ha [2, 14]
85 to 94%: pest or weed control at 140 g/ha [1, 5] | pest or weed control at 35 g/ha [1, 6]
45 to 59%: pest or weed control at 35 g/ha [1, 4] | pest or weed control at 35 g/ha [2, 9] | pest or weed control at 35 g/ha [2, 11] | pest or weed control at 70 g/ha [2, 11]

C=Cc1c(C(=O)OC)nc(-c2cc3c(cc2F)OC(F)(F)O3)c(F)c1N [Compound 27]
75 to 84%: pest or weed control at 70 g/ha [1, 6]
85 to 94%: pest or weed control at 140 g/ha [1, 6]
30 to 44%: pest or weed control at 35 g/ha [1, 6] | pest or weed control at 140 g/ha [2, 11]
0 to 29%: pest or weed control at 35 g/ha [1, 3] | pest or weed control at 70 g/ha [1, 3] | pest or weed control at 140 g/ha [1, 3] | pest or weed control at 35 g/ha [1, 4] | pest or weed control at 70 g/ha [1, 4] | pest or weed control at 140 g/ha [1, 4] | pest or weed control at 35 g/ha [1, 5] | pest or weed control at 70 g/ha [1, 5] | pest or weed control at 140 g/ha [1, 5] | pest or weed control at 35 g/ha [1, 7] | pest or weed control at 70 g/ha [1, 7] | pest or weed control at 140 g/ha [1, 7] | pest or weed control at 35 g/ha [1, 8] | pest or weed control at 70 g/ha [1, 8] | pest or weed control at 140 g/ha [1, 8] | pest or weed control at 35 g/ha [2, 9] | pest or weed control at 70 g/ha [2, 9] | pest or weed control at 140 g/ha [2, 9] | pest or weed control at 35 g/ha [2, 10] | pest or weed control at 70 g/ha [2, 10] | pest or weed control at 140 g/ha [2, 10] | pest or weed control at 35 g/ha [2, 11] | pest or weed control at 70 g/ha [2, 11] | pest or weed control at 35 g/ha [2, 12] | pest or weed control at 70 g/ha [2, 12] | pest or weed control at 140 g/ha [2, 12] | pest or weed control at 35 g/ha [2, 13] | pest or weed control at 70 g/ha [2, 13] | pest or weed control at 140 g/ha [2, 13] | pest or weed control at 35 g/ha [2, 14] | pest or weed control at 70 g/ha [2, 14] | pest or weed control at 140 g/ha [2, 14]
